Experiment: Oxidized product content by HPLC on storage
Format: physicochemical
Experimental: In order to clarify that the polypeptides of the present invention are not easily oxidized, oxidized product content (%) of Arg^17 -PACAP27 obtained in Example 1 below were assayed when stored both in lyophylization and in aqueous acetic acid. The assay of the oxidized product content (%) were conducted on High Performance Liquid Chromatography (HPLC). Conditions of HPLC are as follows:
Solution A 0.1% aqueous trifluoroacetic acid
Solution B acetonitrile containing 0.1% trifluoroacetic acid
A linear gradient elution from solution A to solution
Elution time of Arg^17 -PACAP27:19.9 min

CC[C@H](C)[C@H](NC(=O)CNC(=O)[C@H](CC(=O)O)NC(=O)[C@H](CO)NC(=O)[C@@H](N)Cc1c[nH]cn1)C(=O)N[C@@H](Cc1ccccc1)C(=O)N[C@H](C(=O)N[C@@H](CC(=O)O)C(=O)N[C@@H](CO)C(=O)N[C@@H](Cc1ccc(O)cc1)C(=O)N[C@@H](CO)C(=O)N[C@@H](CCCNC(=N)N)C(=O)N[C@@H](Cc1ccc(O)cc1)C(=O)N[C@@H](CCCNC(=N)N)C(=O)N[C@@H](CCCCN)C(=O)N[C@@H](CCC(N)=O)C(=O)N[C@@H](CCCNC(=N)N)C(=O)N[C@@H](C)C(=O)N[C@H](C(=O)N[C@@H](CCCCN)C(=O)N[C@@H](CCCCN)C(=O)N[C@@H](Cc1ccc(O)cc1)C(=O)N[C@@H](CC(C)C)C(=O)N[C@@H](C)C(=O)N[C@@H](C)C(=O)N[C@H](C(=O)N[C@@H](CC(C)C)C(N)=O)C(C)C)C(C)C)[C@@H](C)O [Arg^17 -PACAP27]
0%: Oxidized product (%) just after synthesizing (just after synthesizing) | Oxidized product (%) aqueous acetic acid (stored in aqueous acetic acid) | Oxidized product (%) lyophilization store (stored in lyophilization)
